Experimental data reported in US10669245B2, “Certain (2S)-N-[(1S)-1-cyano-2-phenylethyl]-1,4-oxazepane-2-carboxamides dipeptidyl peptidase 1 inhibitors” (AstraZeneca AB, priority 2014, dated 2020).

What was measured:
[1] = Test B: In-Vitro Competitive Aortic Tissue Binding Assay; design: species or system Han Wistar rats; conditions: 100 μM compound, competition with [14C]-labelled WO2010/128324 Ex. 3 in rat aortic homogenate; four categories
Experimental: To assist the design of DPP1 inhibitors with a decreased risk of binding to elastin rich tissues, such as the aorta, the in-vitro competitive aortic binding assay disclosed below (Test B) was developed to facilitate the selection process.
Test B: In-Vitro Competitive Aortic Tissue Binding Assay
Aortic homogenate was prepared from the thoracic aortae of Han Wistar rats. Freshly isolated to thoracic aortae were frozen, and later thawed and stripped of non-elastic material. […] Homogenate concentration was adjusted to 30 mg/mL in Puck's saline, and aliquots were stored at −80° C. until use. Positive and negative control compounds and test compounds were made up to 100 mM in DMSO, and added to 1 mL aliquots of aortic homogenate in Puck's saline for a final concentration of 100 μM. Homogenate samples were pre-incubated with test compounds at 37° C., rotating, overnight. [^14C]4-Amino-N-[(1S)-1-cyano-2-(4′-cyanobiphenyl-4-yl)ethyl]tetrahydro-2H-pyran-4-carboxamide was then added to all samples to a final concentration of 100 μM, and samples were incubated at 37° C., rotating, for a further 2 h. Protein was precipitated from each sample by the addition of 10 mL acetone, pre-chilled to −20° C. Samples were left overnight at −20° C. to allow complete precipitation. Precipitate was pelleted by centrifugation at 4,500×g at 4° C. for 20 min, an aliquot of supernatant was removed for analysis, and the remainder of the supernatant discarded. Precipitate was washed by resuspension in 10 mL 80% methanol in distilled water, and re-pelleted by centrifugation at 4,500×g at 4° C. for 20 min. […] After final wash, precipitate was air-dried, and dissolved overnight in 1 mL NCSII Tissue Solubiliser. 1 mL aliquots of supernatants were added to 5 mL Ultima Gold scintillation fluid (Perkin Elmer, Mass., U.S.A.), and 1 mL solubilised pellets were added to 5 mL Hionic-Fluor scintillation fluid (Perkin Elmer, Mass., U.S.A.). Radioactivity of samples was determined on a Beckman LS6500 multipurpose scintillation counter (Beckman Coulter, Ind., U.S.A.). […] Duplicate samples were tested for each compound on each experimental occasion, and at least two experiments were run for each test compound. […] 1-way ANOVA and Bonferroni's multiple comparison tests were performed to calculate significance of differences from vehicle control.

[2] = molecular target: Recombinant Human (RH) DPP1 (Homo sapiens (Human), UniProt P53634); experiment: Test A1: Fluorescence Assay for Recombinant Human (RH) DPP1; type: biochemical; conditions: Test A1, rhDPP1, H-Gly-Arg-AMC substrate (Examples 1-35)
Experimental: Test A1: Fluorescence Assay for Recombinant Human (RH) DPP1
The activity of DPP1 was determined by measuring the enzymatic release of aminomethyl coumarin (AMC) from the peptide substrate (H-Gly-Arg-AMC), which leads to an increase in fluorescence intensity at λex=350 nm and λem=450 nm. The assay was carried out in black 384 well plates in a final volume of 50 μl at 22° C. The assay conditions contained the following: 25 mM piperazine buffer pH 5.0; 50 mM NaCl, 5 mM DTT; 0.01% (v/v) Triton X-100; 100 μM H-Gly-Arg-AMC and rhDPP1 (˜50 pM). […] Routinely, inhibitors were pre-incubated with rhDPP1 for 30-60 min prior to the addition of the peptide substrate to start the reaction for a further 60 min at 22° C.

[3] = rat quantitative whole-body autoradiography (QWBA) studies; type: in vivo
[4] = described in literature (Schmidt et al. 1984); cited from earlier work

Sequence of Recombinant Human (RH) DPP1 (P53634 231-394): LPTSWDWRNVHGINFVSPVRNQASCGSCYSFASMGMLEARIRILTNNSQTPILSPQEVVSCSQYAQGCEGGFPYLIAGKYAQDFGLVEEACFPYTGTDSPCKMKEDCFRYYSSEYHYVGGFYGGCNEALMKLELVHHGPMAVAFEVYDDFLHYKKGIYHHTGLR
Sequence of Recombinant Human (RH) DPP1 (P53634 25-143): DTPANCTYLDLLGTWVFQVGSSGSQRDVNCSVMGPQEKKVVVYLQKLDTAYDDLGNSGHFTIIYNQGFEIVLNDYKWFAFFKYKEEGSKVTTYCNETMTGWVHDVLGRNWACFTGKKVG
Sequence of Recombinant Human (RH) DPP1 (P53634 395-463): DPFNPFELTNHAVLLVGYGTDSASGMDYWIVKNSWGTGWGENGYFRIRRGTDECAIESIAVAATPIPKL

Aortic Tissue Binding [1]	Compound	further results
No binder	Cn1c(=O)oc2ccc(-c3ccc(C[C@@H](C#N)NC(=O)[C@@H]4CNCCCO4)cc3)cc21 [Example 2, (2S)—N-{(1S)-1-Cyano-2-[4-(3-methyl-2-oxo-2,3-dihydro-1,3-benzoxazol-5-yl)phenyl]ethyl}-1,4-oxazepane-2-carboxamide]	
	N#C[C@H](Cc1ccc(-c2ccc(C(N)=O)c(F)c2)cc1)NC(=O)[C@@H]1CNCCCO1 [Example 23, (2S)-N-[(1S)-2-(4′-Carbamoyl-3′-fluorobiphenyl-4-yl)-1-cyanoethyl]-1,4-oxazepane-2-carboxamide]	DPP1 activity, pIC50 [2]: 7.17
	CS(=O)(=O)c1ccc(-c2ccc(C[C@@H](C#N)NC(=O)[C@@H]3CNCCCO3)cc2)cc1 [Example 30, (2S)-N-{(1S)-1-Cyano-2-[4′-(methylsulfonyl)biphenyl-4-yl]ethyl}-1,4-oxazepane-2-carboxamide]	DPP1 activity, pIC50 [2]: 7.43
Binder	N#Cc1ccc(-c2ccc(C[C@@H](C#N)NC(=O)[C@@H]3CCCCN3)cc2)cc1 [WO2009/074829 (Example 24)]	
Medium binder	Cn1c(=O)oc2ccc(-c3ccc(C[C@@H](C#N)NC(=O)[C@@H]4CCCCN4)cc3)cc21 [WO2009/074829 (Example 96)]	
Strong binder (reference)	N#Cc1ccc(-c2ccc(C[C@@H](C#N)NC(=O)C3(N)CCOCC3)cc2)cc1 [WO2010/128324 (Ex. 3), 4-amino-N-[(1S)-1-cyano-2-(4′-cyanobiphenyl-4-yl)ethyl]tetrahydro-2H-pyran-4-carboxamide]	aortic retention in QWBA [3]: high level of aortic retention
Strong binder	Cn1c(=O)oc2ccc(-c3ccc(C[C@@H](C#N)NC(=O)C4(N)CCOCC4)cc3)cc21 [WO2010/128324 (Example 17)]	
	CC(c1ccc(Cl)c(Cl)c1)N1N=C(N)CC1=O (stereo not drawn) [muzolimine]	retention in the aorta in QWBA [4]: retained selectively in the aorta
